The results in this text go back to patent publication US20100105680A1, “SUBSTITUTED DIMETHYLCYCLOBUTYL COMPOUNDS, THEIR PREPARATION AND USE IN MEDICAMENTS” (priority 2006, published 2010).

The assay concerns the target T1, sigma-1 receptor (Cavia porcellus, UniProt Q60492).
T1 construct: guinea pig brains were homogenized; from tissue; host or cells: guinea pig brain membranes
In words: Sigma-1 receptor binding ([3H]-(+)-pentazocine, brain membranes). To be noted: [3H]-(+)-pentazocine 0.5 nM, guinea pig brain membranes; for inhibition at 0.01 µM / Percent Inhibition Percent Concentration (μM) 0.0100 SIGMA-1 receptor: compound concentration 0.0100 μM; for inhibition at 0.01 µM: read-out: Percent Inhibition Percent Concentration (μM) 0.0100 SIGMA-1 receptor; for inhibition at 0.1 µM / Percent Inhibition Percent Concentration (μM) 0.1000 SIGMA-1 receptor: compound concentration 0.1000 μM; for inhibition at 0.1 µM: read-out: Percent Inhibition Percent Concentration (μM) 0.1000 SIGMA-1 receptor. Here is the method:
Brain membrane preparation and binding assays for the sigma-1 receptor were performed as described (DeHaven-Hudkins et al., Characterization of the binding of [^3H]-(+)-pentazocine to recognition sites in guinea pig brain, Eur. J. Pharmacol. 227, 371-378) with some modifications.
In brief, guinea pig brains were homogenized in 10 vols. (w/v) of Tris-HCl 50 mM, 0.32 M sucrose, pH 7.4, with a Kinematica Polytron PT 3000 at 15000 r.p.m. for 30 s. The homogenate was centrifuged at 1000 g for 10 min at 4° C. and the supernatants collected and centrifuged again at 48000 g for 15 min at 4° C. The pellet was resuspended in 10 volumes of Tris-HCl buffer (50 mM, pH 7.4), incubated at 37° C. for 30 min, and centrifuged at 48000 g for 20 min at 4° C. Following this, the pellet was resuspended in fresh Tris-HCl buffer (50 mM, pH 7.4) and stored on ice until use.
Each assay tube contained 10 μL of [^3H]-(+)-pentazocine (final concentration of 0.5 nM), 900 μL of the tissue suspension to a final assay volume of 1 mL and a final tissue concentration of approximately 30 mg tissue net weight/mL. Non-specific binding was defined by addition of a final concentration of […] haloperidol. All tubes were incubated at 37° C. for 150 min before termination of the reaction by rapid filtration over Schleicher & Schuell GF 3362 glass fibre filters [previously soaked in a solution of 0.5% polyethylenimine for at least 1 h]. Filters were then washed with four times with 4 mL of cold Tris-HCl buffer (50 mM, pH 7.4). Following addition of scintillation cocktail, the samples were allowed to equilibrate overnight. The amount of bound radioactivity was determined by liquid scintillation spectrometry using a Wallac Winspectral 1414 liquid scintillation counter. Protein concentrations were determined by the method of Lowry et al. (Protein measurement with the Folin phenol reagent, J. Biol. Chem, 193, 265).
The binding of the compounds of the present invention to sigma-1 receptors was tested as described above.

T1 sequence (Q60492 whole entry): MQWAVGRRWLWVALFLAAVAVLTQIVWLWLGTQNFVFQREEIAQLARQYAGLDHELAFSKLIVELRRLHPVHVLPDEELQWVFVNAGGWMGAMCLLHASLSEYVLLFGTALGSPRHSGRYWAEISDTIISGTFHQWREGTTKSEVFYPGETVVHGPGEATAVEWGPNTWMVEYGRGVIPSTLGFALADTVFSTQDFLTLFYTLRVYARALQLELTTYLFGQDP

Consider `CC1(C)[C@H](CCOCc2ccccc2)C[C@@H]1CN1CCOCC1` [compound 1], for which the affinity corresponds to a Ki of 6.1 nM, the inhibition at 0.01 µM stood at 62.8% and the inhibition at 0.1 µM was 79.7%.

Turning to `CN(Cc1ccccc1)CC1CC(CCO)C1(C)C` (centres unmarked) [compound 24], the inhibition constant (Ki) (usually a measure of affinity in units of concentration, obtained from inhibition or displacement) was determined as 3.3 nM; the inhibition at 0.01 µM came to 69.7%; the inhibition at 0.1 µM turned out to be 92%.

Take `CC1(C)[C@@H](CCO)C[C@H]1CN1CCOCC1` [compound 19]: the inhibition at 0.01 µM was found to be 17.1% and the inhibition at 0.1 µM stood at 42.3%.

On to `CC1(C)[C@H](CCOCc2ccccc2)C[C@@H]1CN1CCC(c2ccccc2)CC1` [compound 3], for which the inhibition at 0.01 µM came to 30.2% and the inhibition at 0.1 µM was 97.7%.

Turning to `CC1(C)[C@@H](CCN2CCC(c3ccccc3)CC2)C[C@H]1CN1CCCCC1` [compound 51], the inhibition at 0.01 µM turned out to be 36.1% and the inhibition at 0.1 µM amounted to 81.9%.

As for `CC1(C)[C@@H](CCN2CCC(Cc3ccccc3)CC2)C[C@H]1CN1CCOCC1` [compound 42], the inhibition at 0.01 µM amounted to 19.7% and the inhibition at 0.1 µM came to 88%.

On to `CC1(C)[C@H](COCc2ccccc2)C[C@@H]1CCN1CCOCC1` [compound 39], for which the Ki was 8.4 nM, the inhibition at 0.01 µM was found to be 94.1% and the inhibition at 0.1 µM stood at 95.8%.

Turning to `CC1(C)[C@@H](CCOc2ccccc2)C[C@H]1CN1CCCCC1` [compound 16], affinity was put at a Ki of 2.2 nM, the inhibition at 0.01 µM stood at 97.5% and the inhibition at 0.1 µM amounted to 96.4%.

For the molecule `CC1(C)[C@@H](CCn2ccc3c2CCCC3=O)C[C@H]1CN1CCCCC1` [compound 53], the inhibition at 0.01 µM was -6.6% and the inhibition at 0.1 µM was 73.6%.

With `CC1(C)[C@@H](CCN2CCc3ccccc3C2)C[C@H]1CN1CCCCC1` [compound 54], the affinity, expressed as Ki, was 11.7 nM; the inhibition at 0.01 µM stood at 42.2%; the inhibition at 0.1 µM was 87.1%.

Regarding `CC1(C)[C@H](CCOCc2ccccc2)C[C@@H]1CN1CCN(c2ccccc2)CC1` [compound 4], the inhibition at 0.01 µM worked out at 24.1% and the inhibition at 0.1 µM is 82.2%.

Consider `CC(O)(c1ccccc1)[C@@H]1C[C@H](CCN2CCOCC2)C1(C)C` (some centres unmarked) [compound 13], for which the Ki was 1.2 nM, the inhibition at 0.01 µM was 77.8% and the inhibition at 0.1 µM was 95.2%.

With `CC1(C)[C@@H](CCn2cncn2)C[C@H]1CN1CCCCC1` [compound 50], the inhibition at 0.01 µM came to 2% and the inhibition at 0.1 µM is 20.9%.

With `CC1(C)[C@@H](CCn2cccn2)C[C@H]1CN1CCOCC1` [compound 44], the inhibition at 0.01 µM came to 41.7% and the inhibition at 0.1 µM worked out at 82.8%.

In the case of `C[C@@H]1CN(C[C@@H]2C[C@H](CCOCc3ccccc3)C2(C)C)C[C@H](C)O1` [compound 32], affinity was put at a Ki of 3.6 nM, the inhibition at 0.01 µM was 94.6% and the inhibition at 0.1 µM is 99.1%.

Regarding `CC(O)(c1ccccc1)[C@@H]1C[C@H](CCN2CCCCC2)C1(C)C` (some centres unmarked) [compound 14], the affinity, expressed as Ki, was 1.9 nM; the inhibition at 0.01 µM is 75.6%; the inhibition at 0.1 µM came out at 97.5%.

For the molecule `CN1CCN(C[C@H]2C[C@@H](CCOCc3ccccc3)C2(C)C)CC1` [compound 5], the inhibition at 0.01 µM was 42.5% and the inhibition at 0.1 µM amounted to 92.4%.

For the molecule `CC1(C)[C@@H](CCN2CCc3ccccc3C2)C[C@H]1CN1CCOCC1` [compound 47], the inhibition at 0.01 µM amounted to 36.8% and the inhibition at 0.1 µM amounted to 92%.

On to `CC1(C)[C@@H](CCn2cncn2)C[C@H]1CN1CCOCC1` [compound 45], for which the inhibition at 0.01 µM turned out to be 10.3% and the inhibition at 0.1 µM was 28.4%.

On to `CC1(C)[C@@H](CCn2ccnc2)C[C@H]1CN1CCCCC1` [compound 48], for which the inhibition at 0.01 µM amounted to 34.3% and the inhibition at 0.1 µM stood at 72.4%.

For `CC1(C)[C@@H](COCc2ccccc2)C[C@H]1CN1CCN(c2ccccc2)CC1` [compound 9], the affinity, expressed as Ki, was 14.6 nM; the inhibition at 0.01 µM was 60%; the inhibition at 0.1 µM was determined as 94.7%.

Take `CC1(C)[C@@H](CCN2CCCC(c3ccccc3)C2)C[C@H]1CN1CCOCC1` (some centres unmarked) [compound 40]: the inhibition at 0.01 µM came to 16.3% and the inhibition at 0.1 µM was found to be 60.1%.

For `CC1CCN(C[C@@H]2C[C@H](CCO)C2(C)C)CC1` [compound 21], the inhibition at 0.01 µM is 25.7% and the inhibition at 0.1 µM amounted to 77.1%.

On to `CC1(C)[C@H](CCOCc2ccccc2)C[C@@H]1CN1CCCCC1` [compound 2], for which the inhibition constant Ki came out at 1.5 nM, the inhibition at 0.01 µM worked out at 66.5% and the inhibition at 0.1 µM stood at 95.9%.

For the molecule `CC1(C)[C@@H](CCOCc2ccccc2)C[C@H]1CN1CCCC1` [compound 33], the affinity, expressed as Ki, was 0.6 ± 0.2 nM; the inhibition at 0.01 µM is 85.3%; the inhibition at 0.1 µM came to 89.8%.

With `CC1(C)[C@H](CO)C[C@@H]1CCN1CCC(Cc2ccccc2)CC1` [compound 25], the affinity corresponds to a Ki of 1.2 nM, the inhibition at 0.01 µM stood at 83% and the inhibition at 0.1 µM came out at 98.3%.

For `CN1CCN(C[C@@H]2C[C@H](CCOCc3ccccc3)C2(C)C)CC1.O=C(O)C(=O)O` [compound 35], the affinity, expressed as Ki, was 5.3 nM; the “Percent Inhibition Percent Concentration (μM) 0.0100 SIGMA-1 receptor” value is recorded as 76.7%; the “Percent Inhibition Percent Concentration (μM) 0.1000 SIGMA-1 receptor” value is 95.9%.

With `CC1(C)[C@@H](CCOc2ccccc2)C[C@H]1CN1CCOCC1` [compound 15], affinity was put at a Ki of 4.2 nM, the inhibition at 0.01 µM amounted to 93.6% and the inhibition at 0.1 µM was found to be 95.4%.

For `CC1(C)[C@@H](CCn2cccn2)C[C@H]1CN1CCCCC1` [compound 49], the inhibition constant (Ki) was found to be 4.9 nM, the inhibition at 0.01 µM is 45.7% and the inhibition at 0.1 µM came to 92%.

As to `CC1(C)[C@@H](COCc2ccccc2)C[C@H]1CN1CCC(c2ccccc2)CC1` [compound 8], the Ki worked out at 10.9 nM, the inhibition at 0.01 µM was found to be 48.3% and the inhibition at 0.1 µM worked out at 101%.

Consider `CC1(C)[C@@H](CCN2CCC(Cc3ccccc3)CC2)C[C@H]1CN1CCCCC1` [compound 52], for which the inhibition at 0.01 µM was -0.6% and the inhibition at 0.1 µM was 52.6%.

In the case of `CC1(C)[C@@H](CCOCc2ccccc2)C[C@H]1CN1CCSCC1` [compound 30], the inhibitory constant (Ki) stood at 1 nM, the inhibition at 0.01 µM stood at 74% and the inhibition at 0.1 µM was 91.8%.

For the molecule `CN1CCN(C[C@@H]2C[C@H](CCOCc3ccccc3)C2(C)C)CC1` [compound 34], the inhibitory constant (Ki) worked out at 3.6 nM, the inhibition at 0.01 µM was determined as 92.3% and the inhibition at 0.1 µM came out at 96.2%.

Regarding `CC1(C)[C@H](COCc2ccccc2)C[C@@H]1CCN1CCCCC1` [compound 38], the Ki was found to be 1.2 nM, the inhibition at 0.01 µM came out at 88.6% and the inhibition at 0.1 µM stood at 98.5%.

As to `CC1(C)[C@H](CCO)C[C@@H]1CN1CCCCC1` [compound 18], the inhibition at 0.01 µM was -21.4% and the inhibition at 0.1 µM came out at 44.8%.

With `CC1(C)[C@H](CCO)C[C@@H]1CN1CCOCC1` [compound 20], the inhibition at 0.01 µM was found to be 31.5% and the inhibition at 0.1 µM stood at 63.1%.

Turning to `CC1(C)[C@@H](CCOCc2ccccc2)C[C@H]1CN1CCN(c2ccccc2)CC1.O=C(O)C(=O)O` [compound 37], the Ki was 33.5 nM, the “Percent Inhibition Percent Concentration (μM) 0.0100 SIGMA-1 receptor” value worked out at 79.7% and the “Percent Inhibition Percent Concentration (μM) 0.1000 SIGMA-1 receptor” value worked out at 98.8%.

`CC(O)[C@@H]1C[C@H](CCN2CCOCC2)C1(C)C` (some centres unmarked) [compound 11]: the inhibition at 0.01 µM was -8.3% and the inhibition at 0.1 µM amounted to 44.4%.

For `CC1(C)[C@@H](CCOCc2ccccc2)C[C@H]1CN1CCC(c2ccccc2)CC1` [compound 29], the affinity, expressed as Ki, was 16.6 nM; the inhibition at 0.01 µM amounted to 76.9%; the inhibition at 0.1 µM worked out at 95.6%.

Regarding `CC(O)[C@@H]1C[C@H](CCN2CCCCC2)C1(C)C` (some centres unmarked) [compound 12], the inhibition at 0.01 µM is 5.5% and the inhibition at 0.1 µM came out at 44.1%.

Turning to `CC1(C)[C@@H](CCn2ccc3c2CCCC3=O)C[C@H]1CN1CCOCC1` [compound 46], the Ki was found to be 13.5 nM, the inhibition at 0.01 µM came out at 50.2% and the inhibition at 0.1 µM turned out to be 83%.

Take `CC1(C)[C@@H](COCc2ccccc2)C[C@H]1CN1CCOCC1` [compound 6]: the affinity corresponds to a Ki of 1.3 nM, the inhibition at 0.01 µM was found to be 91% and the inhibition at 0.1 µM stood at 98.4%.
